Measurements: ChEMBL document CHEMBL3727364, “Resorcinol n-aryl amide compounds, for use as pyruvate dehydrogenase kinase inhibitors” (2015)

Molecular target: [Pyruvate dehydrogenase (acetyl-transferring)] kinase isozyme 1, mitochondrial (Homo sapiens, UniProt Q15118)
Assay: Binding affinity to pyruvate dehydrogenase kinase 1 (unknown origin) incubated for 90 mins by VER-00160364 probe based fluorescence polarization assay

Chain of [Pyruvate dehydrogenase (acetyl-transferring)] kinase isozyme 1, mitochondrial (Q15118 whole entry): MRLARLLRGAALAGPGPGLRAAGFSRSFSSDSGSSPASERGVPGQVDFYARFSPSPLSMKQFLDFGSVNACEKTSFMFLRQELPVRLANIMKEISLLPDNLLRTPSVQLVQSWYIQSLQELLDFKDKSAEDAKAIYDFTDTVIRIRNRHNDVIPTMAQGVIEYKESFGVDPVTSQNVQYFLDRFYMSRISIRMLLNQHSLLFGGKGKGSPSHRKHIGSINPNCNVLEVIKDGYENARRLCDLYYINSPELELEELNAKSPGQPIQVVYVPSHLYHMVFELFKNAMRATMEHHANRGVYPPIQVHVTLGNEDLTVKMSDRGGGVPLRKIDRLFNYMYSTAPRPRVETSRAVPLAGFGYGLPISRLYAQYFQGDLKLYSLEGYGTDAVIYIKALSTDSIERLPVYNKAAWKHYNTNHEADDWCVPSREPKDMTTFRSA

Structure (SMILES) | IC50 [nM]
CCOC(=O)c1nc(-c2ccc(N(Cc3cccnc3)C(=O)c3ccc(O)cc3O)cc2)c2ccccc2n1 | 100
Cc1c(Cl)ncc2cc(-c3ccc(N(Cc4cccnc4)C(=O)c4ccc(O)cc4O)cc3)ccc12 | 1000
CN(Cc1ccc(OC(F)(F)F)cc1)C(=O)c1ccc(N(Cc2cccnc2)C(=O)c2ccc(O)cc2O)cc1 | 100
Cc1cc(S(=O)(=O)NCc2cccnc2)cnc1-c1ccc(N(Cc2cccnc2)C(=O)c2ccc(O)cc2O)cc1 | 10
CCOC(=O)c1nc(C)nc(-c2ccc(N(Cc3ccccc3)C(=O)c3ccc(O)cc3O)cc2)c1C | 10000
Nc1nccc(-c2ccc(N(Cc3cccnc3)C(=O)c3ccc(O)cc3O)cc2)n1 | 1000
Cc1cc(S(=O)(=O)NCCN(C)C)cnc1-c1ccc(N(Cc2cccnc2)C(=O)c2ccc(O)cc2O)cc1 | 100
O=C(Nc1ccc(N(Cc2ccccc2)C(=O)c2ccc(O)cc2O)cc1)c1cc2ccccc2[nH]1 | 10000
O=C(c1ccc(O)cc1O)N(Cc1cccnc1)c1ccc(-c2ccc(-n3ccnc3)nn2)cc1 | 1000
Cc1cc2ccccc2nc1-c1ccc(N(Cc2ccc(F)c(F)c2)C(=O)c2ccc(O)cc2O)cc1 | 100
Cc1cc(S(=O)(=O)N2CCCCC2)cnc1-c1ccc(N(Cc2cccnc2)C(=O)c2ccc(O)cc2O)cc1 | 10
O=C(c1ccc(O)cc1O)N(Cc1ccccc1)c1ccc(-c2ccc(N3CCCC3)nn2)cc1 | 1000
CNc1nnc(-c2ccc(N(Cc3cccnc3)C(=O)c3ccc(O)cc3O)cc2)c2ccccc12 | 100
CN(Cc1cccc2ccccc12)C(=O)c1ccc(N(Cc2ccccc2)C(=O)c2ccc(O)cc2O)cc1 | 1000
Cc1nc(N(C)C)nc(-c2ccc(N(Cc3cccnc3)C(=O)c3ccc(O)cc3O)cc2)c1C | 1000
CN(C)C(=O)c1ccc(N(Cc2ccn(C)n2)C(=O)c2cc(Cl)c(O)cc2O)cc1 | 10000
Cc1cc(S(=O)(=O)NCc2ccccc2)cnc1-c1ccc(N(Cc2ccccc2)C(=O)c2ccc(O)cc2O)cc1 | 100
CN(C)C(=O)c1ccc(N(Cc2ccccc2)C(=O)c2ccc(O)cc2O)cc1 | 100
Cc1cc(S(=O)(=O)NCc2ccccn2)cnc1-c1ccc(N(Cc2cccnc2)C(=O)c2ccc(O)cc2O)cc1 | 10

Structure (SMILES) | IC50 [nM]
CN(Cc1ccc2ccccc2n1)C(=O)c1ccc(N(Cc2cccnc2)C(=O)c2ccc(O)cc2O)cc1 | 100
CCc1nccnc1-c1ccc(N(Cc2ccccc2)C(=O)c2ccc(O)cc2O)cc1 | 100
Cc1cc2ccccc2nc1-c1ccc(N(Cc2ccc(CN3CCOCC3)cc2)C(=O)c2ccc(O)cc2O)cc1 | 1000
CN(Cc1ccc2nccnc2c1)C(=O)c1ccc(N(Cc2cccnc2)C(=O)c2ccc(O)cc2O)cc1 | 10
O=C(Cc1ccccc1)Nc1ccc(N(Cc2ccccc2)C(=O)c2ccc(O)cc2O)cc1 | 1000
Cc1cc2ccccc2nc1-c1ccc(N(Cc2ccc(CN(C)C)cc2)C(=O)c2ccc(O)cc2O)cc1 | 100
Cn1ccnc1-c1ccc(N(Cc2ccccc2)C(=O)c2ccc(O)cc2O)cc1 | 1000
O=C(c1ccc(O)cc1O)N(Cc1cccnc1)c1ccc(-c2ncnc3ccc(Cl)cc23)cc1 | 100
CNC(=O)c1ccc(N(Cc2ccccc2)C(=O)c2ccc(O)cc2O)cc1 | 1000
CN(Cc1cccc(C(F)(F)F)c1)C(=O)c1ccc(N(Cc2ccccc2)C(=O)c2ccc(O)cc2O)cc1 | 10000
CSc1nc(-c2ccc(N(Cc3cccnc3)C(=O)c3ccc(O)cc3O)cc2)c2cc[nH]c2n1 | 100
Cc1nc(-c2ccc(N(Cc3ccccc3)C(=O)c3ccc(O)cc3O)cc2)c2ccccc2n1 | 1000
O=C(c1ccc(O)cc1O)N(Cc1cccnc1)c1ccc(-c2cc3cncnc3[nH]2)cc1 | 1000
CCNCc1ccc(CN(C(=O)c2ccc(O)cc2O)c2ccc(-c3nc4ccccc4cc3C)cc2)cc1 | 100
O=C(c1ccc(O)cc1O)N(Cc1cccnc1)c1ccc(-c2nc3ccccc3nc2C(F)(F)F)cc1 | 100
N#Cc1cncnc1-c1ccc(N(Cc2cccnc2)C(=O)c2ccc(O)cc2O)cc1 | 100
CCc1cc2ccccc2nc1-c1ccc(N(Cc2cccnc2)C(=O)c2ccc(O)cc2O)cc1 | 100
CN(C)C(=O)c1ccc(N(CCN2CCCCC2)C(=O)c2cc(Cl)c(O)cc2O)cc1 | 100
CN(C)C(=O)c1ccc(N(Cc2nc3ccccc3[nH]2)C(=O)c2cc(Cl)c(O)cc2O)cc1 | 1000

Structure (SMILES) | IC50 [nM]
Cc1cc2ccccc2nc1-c1ccc(N(Cc2cccc3ccccc23)C(=O)c2ccc(O)cc2O)cc1 | 100
COc1ccc(CN(C)C(=O)c2ccc(N(Cc3cccnc3)C(=O)c3ccc(O)cc3O)cc2)cc1 | 10
Cc1c(-c2ccc(N(Cc3ccccc3)C(=O)c3ccc(O)cc3O)cc2)ccc2[nH]ncc12 | 1000
O=C(Nc1ccc(N(Cc2ccccc2)C(=O)c2ccc(O)cc2O)cc1)NC1CCNCC1 | 10000
O=C(c1ccc(O)cc1O)N(Cc1cccnc1)c1ccc(-c2nc3ccccc3cc2CO)cc1 | 100
Cc1nccn1-c1ccc(-c2ccc(N(Cc3cccnc3)C(=O)c3ccc(O)cc3O)cc2)nn1 | 100
CS(=O)(=O)Nc1ccc(N(Cc2ccccc2)C(=O)c2ccc(O)cc2O)cc1 | 1000
O=C(c1ccc(N(Cc2ccccc2)C(=O)c2ccc(O)cc2O)cc1)N1CCC(O)CC1 | 100
CCNC(=O)Nc1ccc(N(Cc2ccccc2)C(=O)c2ccc(O)cc2O)cc1 | 1000
CN(Cc1cccs1)C(=O)c1ccc(N(Cc2ccsc2)C(=O)c2ccc(O)cc2O)cc1 | 100
O=C(c1ccc(O)cc1O)N(Cc1cccnc1)c1ccc(-c2ncccc2CO)cc1 | 100
CN(C)CCN(C)C(=O)c1ccc(N(Cc2cccnc2)C(=O)c2ccc(O)cc2O)cc1 | 1000
COc1ccc2nc(-c3ccc(N(Cc4cccnc4)C(=O)c4ccc(O)cc4O)cc3)c(C)cc2c1 | 100
O=C(c1ccc(N(Cc2cccnc2)C(=O)c2ccc(O)cc2O)cc1)N1CCC(O)CC1 | 100
Cc1noc(-c2ccccc2CN(C(=O)c2ccc(O)cc2O)c2ccc(-c3nc4ccccc4cc3C)cc2)n1 | 10
Cc1cn(-c2ccc(-c3ccc(N(Cc4cccnc4)C(=O)c4ccc(O)cc4O)cc3)nn2)cn1 | 100
O=C(c1ccc(O)cc1O)N(Cc1ccccc1)c1ccc(-c2ncnc3cccc(F)c23)cc1 | 1000
CN(Cc1ccc2ccccc2n1)C(=O)c1ccc(N(Cc2ccccc2)C(=O)c2ccc(O)cc2O)cc1 | 100

The remaining lines, values ahead:

IC50 [nM] | Structure (SMILES)
100 | Cc1cc2cc(Cl)ccc2nc1-c1ccc(N(Cc2cccnc2)C(=O)c2ccc(O)cc2O)cc1
100 | Cc1csc2ncnc(-c3ccc(N(Cc4cccnc4)C(=O)c4ccc(O)cc4O)cc3)c12
1000 | C#Cc1ncc(C)c(-c2ccc(N(Cc3ccccc3)C(=O)c3ccc(O)cc3O)cc2)n1
10 | Cc1cnc(-c2ccc(N(Cc3cccnc3)C(=O)c3ccc(O)cc3O)cc2)c(C)n1
100 | Cc1cc(C(=O)N(Cc2ccsc2)c2ccc(C(=O)N(C)C)cc2)c(O)cc1O
100 | COc1ccc2nc(-c3ccc(N(Cc4ccsc4)C(=O)c4ccc(O)cc4O)cc3)c(C)cc2c1
100 | Cc1cc(S(=O)(=O)N(C)CCO)cnc1-c1ccc(N(Cc2ccsc2)C(=O)c2ccc(O)cc2O)cc1
100 | O=C(c1ccc(O)cc1O)N(Cc1ccsc1)c1ccc(-c2nc3ccccc3cc2CO)cc1
100 | Cc1cnc(Cl)nc1-c1ccc(N(Cc2ccc(C#N)cc2)C(=O)c2ccc(O)cc2O)cc1
1000 | Cc1ccc(-c2ccc(N(Cc3cccnc3)C(=O)c3ccc(O)cc3O)cc2)c(Cl)c1
1000 | O=C(c1ccc(O)cc1O)N(Cc1ccsc1)c1ccc(-c2ccnc3ccccc23)cc1
1000 | CCOc1ccc2nc(-c3ccc(N(Cc4ccsc4)C(=O)c4ccc(O)cc4O)cc3)c(C)cc2c1
1000 | O=C(c1ccc(O)cc1O)N(Cc1ccsc1)c1ccc(-c2nc(Cl)nc3[nH]ccc23)cc1
10 | Cc1cnc(Cl)nc1-c1ccc(N(Cc2ccc(CN3CCCC3)cc2)C(=O)c2ccc(O)cc2O)cc1
10 | CCc1cnc(C)nc1-c1ccc(N(Cc2cccnc2)C(=O)c2ccc(O)cc2O)cc1
1000 | Cc1nc(C)c(-c2ccc(N(Cc3cccnc3)C(=O)c3ccc(O)cc3O)cc2)s1
10 | COc1ccc(CN(C)C(=O)c2ccc(N(Cc3ccsc3)C(=O)c3cc(C)c(O)cc3O)cc2)cc1
10 | Cc1cccnc1-c1ccc(N(Cc2cccnc2)C(=O)c2cc(Cl)c(O)cc2O)cc1

IC50 [nM] | Structure (SMILES)
1000 | Cc1cccnc1-c1ccc(N(Cc2ccccc2)C(=O)c2cc(Cl)c(O)cc2O)cc1
100 | Cc1cc2ccccc2nc1-c1ccc(N(Cc2ccsc2)C(=O)c2ccc(O)cc2O)cc1
10 | Cc1cnc(Cl)nc1-c1ccc(N(Cc2ccccc2)C(=O)c2ccc(O)cc2O)cc1
10 | Cc1ccc(C)c(-c2ccc(N(Cc3ccccc3)C(=O)c3ccc(O)cc3O)cc2)n1
10 | Cc1cnc(Cl)nc1-c1ccc(N(Cc2cccc(Cn3ccnc3)c2)C(=O)c2cc(Cl)c(O)cc2O)cc1
100 | Cc1cncnc1-c1ccc(N(Cc2ccccc2)C(=O)c2ccc(O)cc2O)cc1
10 | Cc1c(Cl)nc(Cl)nc1-c1ccc(N(Cc2cccnc2)C(=O)c2ccc(O)cc2O)cc1
1000 | Cc1cc2cc(Cl)ccc2nc1-c1ccc(N(Cc2ccsc2)C(=O)c2ccc(O)cc2O)cc1
100 | Cc1cc(N)cnc1-c1ccc(N(Cc2ccccc2)C(=O)c2ccc(O)cc2O)cc1
1000 | O=C(c1ccc(O)cc1O)N(Cc1cccnc1)c1ccc(-c2ccc(Cl)cc2Cl)cc1
1000 | Cc1cc(-c2ccc(N(Cc3cccnc3)C(=O)c3ccc(O)cc3O)cc2)cnc1Cl
100 | Cc1nccnc1-c1ccc(N(Cc2cccnc2)C(=O)c2ccc(O)cc2O)cc1
100 | CCc1nccnc1-c1ccc(N(Cc2ccsc2)C(=O)c2ccc(O)cc2O)cc1
1000 | CN(C)C(=O)c1ccc(N(Cc2csc3ccc(Cl)cc23)C(=O)c2cc(Cl)c(O)cc2O)cc1
100 | Cc1ccnnc1-c1ccc(N(Cc2ccccc2)C(=O)c2ccc(O)cc2O)cc1
10 | Cc1cnc(Cl)nc1-c1ccc(N(Cc2ccsc2)C(=O)c2cc(Cl)c(O)cc2O)cc1
100 | Cc1cc2ccc(F)cc2nc1-c1ccc(N(Cc2ccsc2)C(=O)c2ccc(O)cc2O)cc1
